Here are results for six molecules from US7854753B2, “Photokinetic delivery of biologically active substances using pulsed incoherent light” (Photokinetix, Inc., priority 2002, dated 2010).

A short description of this series: Franz skin diffusion cell permeation (percutaneous absorption) under ambient, natural or pulsed incoherent LED light. As to conditions: for Permeation Dark: ambient light absent; for Permeation Ctrl: ambient cool fluorescent light only, 260-750 nm, 120 cps; for Permeation Ctrl-TiO2: ambient fluorescent light, sample with 2% (w/w) rutile TiO2; for Ctrl: ambient light only; for Ctrl-TiO2: ambient light, 2% TiO2; for Ctrl-TiO2/1.7 / Ctrl-TiO2/9.7 / Ctrl-TiO2/24: Table 7, 350 nm series; for Ctrl-TiO2/1.7: 2% TiO2, 1.7 cps; for Ctrl-TiO2/9.7: 2% TiO2, 9.7 cps; for Ctrl-TiO2/24: 2% TiO2, 24 cps; for 350/1.7 / 350/9.7 / 350/24: Table 7.

On to `Cn1c(=O)c2c(ncn2CC(=O)O)n(C)c1=O` [Compound 1, Theophylline-7 acetic acid], for which the “Permeation Ctrl” value stood at 0.00 μg/0.64 cm^2/25 hrs and the “Permeation Ctrl-TiO2” value is given as 0.00 μg/0.64 cm^2/25 hrs. Also, where the note is “Dark control”, the “Permeation Dark” value is reported as 0.00 μg/0.64 cm^2/25 hrs.

In the case of `O=C1O[C@H]([C@@H](O)CO)C([O-])=C1OP(=O)([O-])[O-].[Na+].[Na+].[Na+]` [Compound 2, Sodium ascorbyl phosphate], the Ctrl-TiO2/1.7 is given as 42.75, the Ctrl-TiO2/9.7 amounted to 6.48 and the Ctrl-TiO2/24 was 0.00. Where the note is “Table 7 (350 nm series)”, this molecule registered a Ctrl of 0.00 and a Ctrl-TiO2 of 0.00. Where the note is “350 nm, 1.7 cps”, the 350/1.7 came out at 3.33. The molecule also had a 350/9.7 (350 nm, 9.7 cps) of 0.00. The 350/24 (350 nm, 24 cps) is recorded as 0.00.

For `O=C1O[C@H]([C@@H](O)CO)C(O)=C1O` [Compound 3, Ascorbic Acid], for the setting “Table 7 (350 nm series)”, the Ctrl was found to be 147.49 and the Ctrl-TiO2 is listed as 67.01. Under “Table 8 (405 nm series)”, this molecule had a Ctrl of 557.96 and a Ctrl-TiO2 of 127.25.

`CCCCCCCCCCCCCCCC(=O)OC[C@H](O)[C@H]1OC(=O)C(O)=C1O` [Compound 4, Ascorbyl palmitate] had a Ctrl-TiO2/1.7 of 289.57, a Ctrl-TiO2/9.7 of 312.06 and a Ctrl-TiO2/24 of 180.88. For the same molecule, where the note is “Dark control”, the “Permeation Dark” value is 0.00 μg/0.64 cm^2/25 hrs. For the setting “Table 7 (350 nm series)”, this molecule returned a Ctrl of 263.48 and a Ctrl-TiO2 of 260.00. Moreover, under “350 nm, 1.7 cps”, the 350/1.7 is listed as 160.87. The molecule also had a 350/9.7 (350 nm, 9.7 cps) of 0.00. Where the note is “350 nm, 24 cps”, this molecule yielded a 350/24 of 151.00.

As for `Cn1c(=O)c2c(ncn2C)n(C)c1=O` [Compound 9, Caffeine], the “Permeation Ctrl” value is on record as 168.70 μg/0.64 cm^2/25 hrs and the “Permeation Ctrl-TiO2” value came out at 47.22 μg/0.64 cm^2/25 hrs. For the same molecule, the “Permeation Dark” value (Dark control) worked out at 269.40 μg/0.64 cm^2/25 hrs.

For `CC(C)[C@H](N)C(=O)N[C@@H](Cc1ccc(O)cc1)C(=O)N[C@H](C(=O)O)C(C)C` [Compound 12, Val-Tyr-Val], the “Permeation Ctrl” value was found to be 35.26 μg/0.64 cm^2/25 hrs and the “Permeation Ctrl-TiO2” value amounted to 41.18 μg/0.64 cm^2/25 hrs. For the same molecule, the “% Permeation (percent increase or decrease vs dark baseline, equation 1)” value (350 + TiO2, 24 cps vs Dark-TiO2) came out at 66.64%. Moreover, the “% Permeation (percent increase or decrease vs dark baseline, equation 1)” value (350 + TiO2, 80 cps vs Dark-TiO2) was found to be 65.49%. Under “350 + TiO2, pulse rate 24 cps”, the Permeation was found to be 18.98 μg/cm^2/24 hrs. For the setting “350 + TiO2, pulse rate 80 cps”, the Permeation is 16.45 μg/cm^2/24 hrs. This molecule also came in with a Permeation (350 nm LED, pulse rate 24 cps) of 22.69 μg/cm^2/24 hrs. Moreover, for the setting “350 nm LED, pulse rate 80 cps”, the Permeation came to 17.41 μg/cm^2/24 hrs. Further, the “% Permeation (percent increase or decrease vs dark baseline, equation 1)” value (350 nm, 24 cps vs Dark) worked out at 50.96%. The “% Permeation (percent increase or decrease vs dark baseline, equation 1)” value (350 nm, 80 cps vs Dark) turned out to be 94.09%. For the same molecule, the “% Permeation (percent increase or decrease vs dark baseline, equation 1)” value (390 + TiO2, 24 cps vs Dark-TiO2) is recorded as 11.76%. For the same molecule, the “% Permeation (percent increase or decrease vs dark baseline, equation 1)” value (390 + TiO2, 80 cps vs Dark-TiO2) amounted to 95.88%. The Permeation (390 + TiO2, pulse rate 24 cps) is 12.73 μg/cm^2/24 hrs. Also, the Permeation (390 + TiO2, pulse rate 80 cps) turned out to be 19.47 μg/cm^2/24 hrs. Besides, the Permeation (390 nm LED, pulse rate 24 cps) was 21.47 μg/cm^2/24 hrs. This molecule also showed a Permeation (390 nm LED, pulse rate 80 cps) of 18.70 μg/cm^2/24 hrs. Besides, the “% Permeation (percent increase or decrease vs dark baseline, equation 1)” value (390 nm, 24 cps vs Dark) was 42.85%. Besides, the “% Permeation (percent increase or decrease vs dark baseline, equation 1)” value (390 nm, 80 cps vs Dark) came to 108.47%. Besides, the “% Permeation (percent increase or decrease vs dark baseline, equation 1)” value (405 + TiO2, 24 cps vs Dark-TiO2) is on record as −44.16%. Further, where the note is “405 + TiO2, 80 cps vs Dark-TiO2”, the “% Permeation (percent increase or decrease vs dark baseline, equation 1)” value was 101.11%. Moreover, the Permeation (405 + TiO2, pulse rate 24 cps) amounted to 6.36 μg/cm^2/24 hrs. Moreover, the Permeation (405 + TiO2, pulse rate 80 cps) amounted to 19.99 μg/cm^2/24 hrs. In addition, the Permeation (405 nm LED, pulse rate 24 cps) is reported as 12.32 μg/cm^2/24 hrs. Besides, the Permeation (405 nm LED, pulse rate 80 cps) worked out at 19.89 μg/cm^2/24 hrs. In addition, the “% Permeation (percent increase or decrease vs dark baseline, equation 1)” value (405 nm, 24 cps vs Dark) is reported as −18.03%. Moreover, for the setting “405 nm, 80 cps vs Dark”, the “% Permeation (percent increase or decrease vs dark baseline, equation 1)” value was found to be 121.74%. Also, the “% Permeation (percent increase or decrease vs dark baseline, equation 1)” value (450 + TiO2, 24 cps vs Dark-TiO2) was −33.98%. Also, for the setting “450 + TiO2, 80 cps vs Dark-TiO2”, the “% Permeation (percent increase or decrease vs dark baseline, equation 1)” value is given as 48.29%. Moreover, the Permeation (450 + TiO2, pulse rate 24 cps) was found to be 7.52 μg/cm^2/24 hrs. For the same molecule, the Permeation (450 + TiO2, pulse rate 80 cps) is 14.74 μg/cm^2/24 hrs. The Permeation (450 nm LED, pulse rate 24 cps) is 9.51 μg/cm^2/24 hrs. Besides, the Permeation (450 nm LED, pulse rate 80 cps) amounted to 17.39 μg/cm^2/24 hrs. The “% Permeation (percent increase or decrease vs dark baseline, equation 1)” value (450 nm, 24 cps vs Dark) is on record as −36.73%. Besides, the “% Permeation (percent increase or decrease vs dark baseline, equation 1)” value (450 nm, 80 cps vs Dark) is 93.87%. The “Permeation Dark” value (Dark control) is given as 37.24 μg/0.64 cm^2/25 hrs. The Permeation (Dark control, 24 cps series) is on record as 15.03 μg/cm^2/24 hrs. Where the note is “Dark control, 80 cps series”, the Permeation turned out to be 8.97 μg/cm^2/24 hrs. Also, the Permeation (Dark-TiO2 control (2% TiO2), 24 cps series) turned out to be 11.39 μg/cm^2/24 hrs. For the same molecule, for the setting “Dark-TiO2 control (2% TiO2), 80 cps series”, the Permeation came out at 9.94 μg/cm^2/24 hrs. Moreover, the Permeation (Day (natural daylight, not pulsed), control of the 24 cps series) was determined as 8.27 μg/cm^2/24 hrs. Moreover, the Permeation (Day (natural daylight, not pulsed), control of the 80 cps series) amounted to 11.32 μg/cm^2/24 hrs. Moreover, the “% Permeation (percent increase or decrease vs dark baseline, equation 1)” value (Day vs Dark, 24 cps series) is listed as −44.98%. For the setting “Day vs Dark, 80 cps series”, the “% Permeation (percent increase or decrease vs dark baseline, equation 1)” value was 26.20%. This molecule also came in with a Permeation (Day-TiO2 (natural daylight, 2% TiO2, not pulsed), control of the 24 cps series) of 11.11 μg/cm^2/24 hrs. Also, the Permeation (Day-TiO2 (natural daylight, 2% TiO2, not pulsed), control of the 80 cps series) was 13.64 μg/cm^2/24 hrs. Under “Day-TiO2 vs Dark-TiO2, 24 cps series”, the “% Permeation (percent increase or decrease vs dark baseline, equation 1)” value is on record as −2.55%. The “% Permeation (percent increase or decrease vs dark baseline, equation 1)” value (Day-TiO2 vs Dark-TiO2, 80 cps series) turned out to be 37.22%. Under “Table 10, 405 nm, 1.7 cps”, this molecule came in with a 405/1.7 of 23.21. In addition, the 405/9.7 (Table 10, 405 nm, 9.7 cps) is 91.68. For the setting “Table 10, 405 nm, 24 cps”, this molecule registered a 405/24 of 48.83. Besides, the Ctrl (Table 10 peptides) turned out to be 35.26.
